# Article PMC5678585, “Screening a protein kinase inhibitor library against Plasmodium falciparum” (Malaria Journal, 2017)
# Where a name gives a salt, the structure may show the parent alone. Read-outs that look alike come from different tables or passages of the source.
# Tests used:
# [1] = test system: Plasmodium falciparum 3D7; experiment: microbe, parasite or virus in culture; conditions: for Percentage inhibition of the growth of Plasmodium falciparum: Prestwick Library pilot screen, duplicate; for inhibition at 5 µM: 3D7, read-out: Percentage inhibition of the growth of Plasmodium falciparum, Prestwick Library pilot screen, screening conc. 0.005 mM, duplicate; for inhibition at 6 µM: 3D7, read-out: Percentage inhibition of the growth of Plasmodium falciparum, Prestwick Library pilot screen, screening conc. 0.006 mM, duplicate; for inhibition at 8 µM: 3D7, read-out: Percentage inhibition of the growth of Plasmodium falciparum, Prestwick Library pilot screen, screening conc. 0.008 mM, duplicate
# Protocol: Growth inhibition was quantified using a fluorescence assay utilizing the binding of SYBR Green I to double stranded DNA, which emits a fluorescent signal at 528 nm after excitation at 485 nm. The SYBR Green assay system was adapted to maximize robustness and to align with available automation systems. The Prestwick Library then used as a pilot screen to validate the performance of the optimized assay. […] Single point screens were carried out, and the potency of compounds of interest was determined in duplicate on two independent occasions. A 96-well [^3H]-Hypoxanthine incorporation assay was also developed as a secondary assay in order to validate key compounds from each hit series in an orthogonal platform.
# (§1) All data were processed using IDBS ActivityBase. […] The formula used to calculate Z’ is 1-3×(StDev_high+StDev_low)/ABS(Mean_high-Mean_low) .
# Two independent assays were run.
# [2] = test system: normal diploid human fibroblasts (MRC-5 pd30); experiment: in vitro; format: cell-based
# Protocol: Cells were plated and incubated overnight to allow them to adhere as monolayers. A working stock of each test compound was transferred to an intermediate 384-well plate and pre-diluted with minimum essential media (MEM). The pre-diluted stocks were then transferred onto the cell monolayers, and the plates were incubated for 68 h. Resazurin, to a final concentration of 50 μM was added to each well, after which plates were incubated for a further 3 h and measured for fluorescence (λ ex = 528 nm, λ em = 590 nm).
# as §1
# All EC50 Curve fitting was undertaken using XLFit version 4.2 using Model 205 with the following 4 parametric equation: y=A+B-A/1+[…], where A = % inhibition at bottom, B = % inhibition at top, C = EC50, D = slope, x = inhibitor concentration and y = % inhibition.
# [3] = Plasmodium falciparum, 3D7, read-out: Percentage inhibition of the growth of Plasmodium falciparum, Prestwick Library pilot screen, screening conc. 0.007 mM, duplicate
# [4] = Plasmodium falciparum, 3D7, read-out: Percentage inhibition of the growth of Plasmodium falciparum, Prestwick Library pilot screen, screening conc. 0.004 mM, duplicate
# [5] = Plasmodium falciparum, read-out: Percentage inhibition of the growth of Plasmodium falciparum
# [6] = Plasmodium falciparum, 3D7, read-out: Percentage inhibition of the growth of Plasmodium falciparum, Prestwick Library pilot screen, screening conc. 0.003 mM, duplicate
compound,measurement,setting,value
"C=C[C@H]1CN2CC[C@H]1C[C@H]2[C@H](O)c1ccnc2ccccc12 [(-)-Cinchonidine, reference compound]",Percentage inhibition of the growth of Plasmodium falciparum,[1]; screening conc. 0.007 mM,100 ± 1%
"COc1ccc2c(c1OC)CN1CCc3cc4c(cc3C1C2)OCO4 (stereo not drawn) [(d,l)-Tetrahydroberberine, reference compound]",Percentage inhibition of the growth of Plasmodium falciparum,[1]; screening conc. 0.006 mM,83 ± 2%
"COc1ccc(C[C@H]2NC[C@H](O)[C@H]2OC(C)=O)cc1 [Anisomycin, reference compound]",Percentage inhibition of the growth of Plasmodium falciparum,[1]; screening conc. 0.008 mM,102 ± 2%
"C[C@@H]1CC[C@H]2[C@@H](C)C(=O)O[C@@H]3O[C@@]4(C)CC[C@@H]1[C@]32OO4 [Artemisinin, reference compound]",inhibition at 7 µM,[1]; [3],99.5 ± 0.1%
same,Percentage inhibition of the growth of Plasmodium falciparum,[1]; screening conc. 0.007 mM,100%
"COc1ccc(CCN2CCC(Nc3nc4ccccc4n3Cc3ccc(F)cc3)CC2)cc1 [Astemizole, reference compound]",inhibition at 4 µM,[1]; [4],97.3 ± 0.8%
"O=C1C(O)=C([C@H]2CC[C@H](c3ccc(Cl)cc3)CC2)C(=O)c2ccccc21 [Atovaquone, reference compound]",inhibition at 5 µM,[1]; Plasmodium falciparum,99 ± 2%
"C[N+](C)(CCOc1ccccc1)Cc1ccccc1.O=C([O-])c1cc2ccccc2cc1O [Bephenium hydroxynaphthoate, reference compound]",Percentage inhibition of the growth of Plasmodium falciparum,[1]; screening conc. 0.005 mM,55.1 ± 0.5%
"COc1ccc2cc3[n+](cc2c1OC)CCc1cc2c(cc1-3)OCO2 [Berberine chloride, reference compound]",inhibition at 5 µM,[1]; Plasmodium falciparum,99 ± 2%
"CCCCOc1ccc(CC(=O)NO)cc1 [Bufexamac, reference compound]",inhibition at 9 µM,"[1]; Plasmodium falciparum, 3D7, read-out: Percentage inhibition of the growth of Plasmodium falciparum, Prestwick Library pilot screen, screening conc. 0.009 mM, duplicate",69 ± 2%
"CC[C@H]1CN2CCc3cc(OC)c(OC)cc3[C@@H]2C[C@@H]1C[C@H]1NCCc2cc(O)c(OC)cc21.Cl.Cl.O.O.O.O.O.O.O [Cephaeline dihydrochloride heptahydrate, reference compound]",Percentage inhibition of the growth of Plasmodium falciparum,[1]; screening conc. 0.003 mM,101 ± 3%
"[H]/N=C(\N/C(=N/[H])NCCCCCCNC(=N)NC(=N)Nc1ccc(Cl)cc1)Nc1ccc(Cl)cc1 [Chlorhexidine, reference compound]",inhibition at 4 µM,[1]; [4],98 ± 1%
"CCN(CC)CCCC(C)Nc1ccnc2cc(Cl)ccc12 (stereo not drawn) [Chloroquine diphosphate, reference compound]",inhibition at 4 µM,[1]; [5],104 ± 1%
"C=C[C@H]1C[N@@]2CC[C@H]1C[C@@H]2[C@@H](O)c1ccnc2ccccc12 [Cinchonine, reference compound]",inhibition at 7 µM,[1]; [3],101 ± 5%
"CCC(=O)O[C@]1(C(=O)CCl)[C@@H](C)C[C@H]2[C@@H]3CCC4=CC(=O)C=C[C@]4(C)[C@@]3(F)[C@@H](O)C[C@@]21C [Clobetasol propionate, reference compound]",inhibition at 4 µM,[1]; [4],50 ± 16%
Cc1cc(NC(=O)c2cn(-c3ccccc3)nc2-c2cccs2)[nH]n1 [Compound A0012],EC50,"[2]; Table 8, MMV03 SAR, read-out: MRC5 EC50",24 µM
same,LLE (ligand-lipophilicity efficiency),"[1]; Table 8, MMV03 SAR",1.9
same,EC50,"[1]; read-out: P. fal. EC50, Table 8, MMV03 SAR",6 µM
"C[C@@H]1C[C@@H]([C@H](O)CC2CC(=O)NC(=O)C2)C(=O)[C@@H](C)C1 [Cycloheximide, reference compound]",inhibition at 7 µM,[1]; [5],103.1 ± 0.1%
"COc1cccc2c1C(=O)c1c(O)c3c(c(O)c1C2=O)C[C@@](O)(C(C)=O)C[C@@H]3O[C@H]1C[C@H](N)[C@H](O)[C@H](C)O1 [Daunorubicin hydrochloride, reference compound]",inhibition at 4 µM,[1]; [5],132 ± 1%
"C[N+](C)(C)CCCCCCCCCC[N+](C)(C)C [Decamethonium bromide, reference compound]",inhibition at 5 µM,[1]; Plasmodium falciparum,64 ± 3%
"CN(CCCCCCCCCCN(C)C(=O)Oc1cccc([N+](C)(C)C)c1)C(=O)Oc1cccc([N+](C)(C)C)c1 [Demecarium bromide, reference compound]",inhibition at 3 µM,[1]; [5],104 ± 2%
"COc1cc2nc(N3CCN(C(=O)C4COc5ccccc5O4)CC3)nc(N)c2cc1OC (stereo not drawn) [Doxazosin mesylate, reference compound]",inhibition at 4 µM,[1]; [4],84 ± 0.6%
"COc1cccc2c1C(=O)c1c(O)c3c(c(O)c1C2=O)C[C@@](O)(C(=O)CO)C[C@@H]3O[C@H]1C[C@H](N)[C@H](O)[C@H](C)O1 [Doxorubicin hydrochloride, reference compound]",inhibition at 3 µM,[1]; [6],137 ± 2%
"CC[C@H]1CN2CCc3cc(OC)c(OC)cc3[C@@H]2C[C@@H]1C[C@H]1NCCc2cc(OC)c(OC)cc21 [Emetine dihydrochloride, reference compound]",inhibition at 4 µM,[1]; [4],103 ± 2%
"Br.CC[C@H]1CN2CCC1C[C@H]2[C@H](O)c1ccnc2ccc(OC)cc12.O (stereo partly drawn) [Hydroquinine hydrobromide hydrate, reference compound]",Percentage inhibition of the growth of Plasmodium falciparum,[1]; screening conc. 0.005 mM,99 ± 2%
"OC(c1cc(C(F)(F)F)nc2c(C(F)(F)F)cccc12)C1CCCCN1 (stereo not drawn) [Mefloquine hydrochloride, reference compound]",inhibition at 5 µM,[1]; Plasmodium falciparum,97.4 ± 0.4%
"CN1C[C@H](CNC(=O)OCc2ccccc2)C[C@@H]2c3cccc4c3c(cn4C)C[C@H]21 [Metergoline, reference compound]",inhibition at 5 µM,[1]; Plasmodium falciparum,56 ± 2%
"CN(Cc1cnc2nc(N)nc(N)c2n1)c1ccc(C(=O)N[C@@H](CCC(=O)O)C(=O)O)cc1 [Methotrexate, reference compound]",inhibition at 4 µM,[1]; [4],100.9 ± 0.7%
"O=C1c2c(O)ccc(O)c2C(=O)c2c(NCCNCCO)ccc(NCCNCCO)c21 [Mitoxantrone dihydrochloride, reference compound]",inhibition at 4 µM,[1]; [4],140 ± 2%
"COc1c(C)c2c(c(O)c1C/C=C(\C)CCC(=O)O)C(=O)OC2 [Mycophenolic acid, reference compound]",inhibition at 6 µM,[1]; Plasmodium falciparum,63 ± 3%
"CC(=O)O[C@H]1C(=O)[C@@]2(C)[C@H]([C@H](OC(=O)c3ccccc3)[C@]3(O)C[C@H](OC(=O)[C@H](O)[C@@H](NC(=O)c4ccccc4)c4ccccc4)C(C)=C1C3(C)C)[C@]1(OC(C)=O)CO[C@@H]1C[C@@H]2O [Paclitaxel, reference compound]",inhibition at 2 µM,"[1]; Plasmodium falciparum, 3D7, read-out: Percentage inhibition of the growth of Plasmodium falciparum, Prestwick Library pilot screen, screening conc. 0.002 mM, duplicate",65 ± 2%
"N=C(N)c1ccc(OCCCCCOc2ccc(C(=N)N)cc2)cc1 [Pentamidine isethionate, reference compound]",inhibition at 3 µM,[1]; [6],100 ± 4%
"COc1cc(NC(C)CCCN)c2ncccc2c1 (stereo not drawn) [Primaquine diphosphate, reference compound]",inhibition at 4 µM,[1]; [4],100 ± 4%
"[H]/N=C(\N/C(=N/[H])Nc1ccc(Cl)cc1)NC(C)C [Proguanil hydrochloride, reference compound]",inhibition at 7 µM,[1]; [3],49 ± 4%
"CCCNCC(O)COc1ccccc1C(=O)CCc1ccccc1 (stereo not drawn) [Propafenone hydrochloride, reference compound]",inhibition at 5 µM,[1]; Plasmodium falciparum,99 ± 1%
"COc1ccc(C[C@H](N)C(=O)N[C@H]2[C@@H](O)[C@H](n3cnc4c(N(C)C)ncnc43)O[C@@H]2CO)cc1 [Puromycin dihydrochloride, reference compound]",inhibition at 4 µM,[1]; [4],96 ± 5%
"CCc1nc(N)nc(N)c1-c1ccc(Cl)cc1 [Pyrimethamine, reference compound]",inhibition at 8 µM,[1]; Plasmodium falciparum,101 ± 2%
"CCN(CC)CCCC(C)Nc1c2ccc(Cl)cc2nc2ccc(OC)cc12 (stereo not drawn) [Quinacrine dihydrochloride dihydrate, reference compound]",inhibition at 4 µM,[1]; [4],100 ± 2%
"C=C[C@H]1CN2CC[C@H]1C[C@@H]2[C@@H](O)c1ccnc2ccc(OC)cc12.Cl.O [Quinidine hydrochloride monohydrate, reference compound]",Percentage inhibition of the growth of Plasmodium falciparum,[1]; screening conc. 0.005 mM,100 ± 2%
"CCCCCCCCNC(C)C(O)c1ccc(SC(C)C)cc1 (stereo not drawn) [Suloctidil, reference compound]",inhibition at 6 µM,[1]; Plasmodium falciparum,101 ± 1%
"CCCCCCCCCCCCCCCC[N+](C)(C)CCN(Cc1ccc(OC)cc1)c1ncccn1 [Thonzonium bromide, reference compound]",inhibition at 3 µM,[1]; [6],70 ± 1%
"Nc1nc(N)c2nc(-c3ccccc3)c(N)nc2n1 [Triamterene, reference compound]",inhibition at 8 µM,[1]; Plasmodium falciparum,69 ± 1%
"COc1cccc2c1C(=O)c1c(O)c3c(c(O)c1C2=O)C[C@@](O)(C(=O)CO)C[C@@H]3O[C@H]1C[C@H](N)[C@H](O)[C@H](C)O1 [doxorubicin, reference compound]",EC50,"[2]; Homo sapiens, MRC5, MRC-5 counter-screen plates, read-out: potency range (standard reference compound)",0.2 to 0.4 µM
Verteporfin [reference compound],Percentage inhibition of the growth of Plasmodium falciparum,[1]; screening conc. 0.003 mM,95 ± 2%
